Source: US20050164370A1 (priority 2003, published 2005)

How the values were obtained:
Assay type in all cases: cell-based, yeast
[1] = system: transformed cells TM182-CRE1-ADHIPT4; assay: Liquid culture of transformed cell TM182-CRE1-ADHIPT4 with examinee substance, absorbance; details: Table 4, TM182-CRE1-ADH-IPT4, 1 μL of 200 ppm DMSO solution per 100 μL, DOHLU+Glu, 30° C. for 24 hours
Experimental: (§1) The thus obtained culture solutions were diluted with DOHLU+Glu culture medium so that OD600 became 0.200, and then the diluted ones were further diluted with DOHLU+Glu culture medium at a dilution rate of 1/200 to obtain diluted pre-cultured solutions.
(§2) A 96-well assay plate was prepared by filling each well with 1 μL of a DMSO solution of an examinee substance (Abscisic acid or 6-Benzyl aminopurine). In this regard, it is to be noted that the DMSO solution of a examinee substance was prepared so that the concentration thereof became 200 ppm. Simultaneously, an assay plate was prepared by filling each well with 1 μL of DMSO as a blank section.
(§3) Each of the diluted pre-cultured solutions was added in a volume of 100 μL per each well of both of the assay plates, and was cultured at 30° C. for 24 hours. After incubation, the turbidity of each well was measured using a plate reader. The absorbance (OD600) of each of the culture solutions of the transformed cells containing the examinee substance was shown in Table 4. […] Further, the growth speeds of the transformed cells TM182-CRE1-ADHIPT4, TM182-AHK2-CYC1IPT4, TM182-AHK2-CYC1IPT5 and TM182-AHK2-ADHIPT5 in the culture medium to which 6-Benzyl aminopurine was added were faster than those in the culture medium to which only DMSO was added.

[2] = system: transformed cells TM182-CYC1-ADHIPT5; assay: Liquid culture of transformed cell TM182-CYC1-ADHIPT5 with examinee substance, absorbance; details: DOHLU+Glu, 30° C. for 24 hours
Experimental: as §1, §2
as §3, with “3.” for “4.”, “TM182-CRE1-CYC1IPT4” for “TM182-CRE1-ADHIPT4, TM182-AHK2-CYC1IPT4, TM182-AHK2-CYC1IPT5”, “TM182-CRE1-ADHIPT5” for “TM182-AHK2-ADHIPT5”
as §3

[3] = system: transformed cells TM182-CRE1-ADHIPT5; details: Table 3, TM182-CRE1-ADH-IPT5, 1 μL of 200 ppm DMSO solution per 100 μL, DOHLU+Glu, 30° C. for 24 hours
Experimental: Each of the transformed cells TM182-CYC1-CYC1IPT4, TM182-CYC1-ADHIPT4, TM182-CYC1-CYC1IPT5, TM182-CYC1-ADHIPT5, TM182-CRE1-CYC1IPT4, and TM182-CRE1-ADHIPT5 obtained in Example 16 was inoculated in 200 mL of DOHLU+Gal culture medium, and was pre-cultured at 30° C. for 36 hours. The thus obtained culture solutions were diluted with DOHLU+Glu culture medium so that OD600 became 0.200, and then the diluted ones were further diluted with DOHLU+Glu culture medium at a dilution rate of 1/200 to obtain diluted pre-cultured solutions.
as §2
Each of the diluted pre-cultured solutions was added in a volume of 100 μL per each well of both of the assay plates, and was cultured at 30° C. for 24 hours. After incubation, the turbidity of each well was measured using a plate reader.

[4] = system: transformed cells TM182-AHK2-CYC1IPT4; assay: Liquid culture of transformed cell TM182-AHK2-CYC1IPT4 with examinee substance, absorbance; details: Table 4, TM182-AHK2-CYC1-IPT4, 1 μL of 200 ppm DMSO solution per 100 μL, DOHLU+Glu, 30° C. for 24 hours
Experimental: as §1, §2, §3

[5] = Table 3, TM182-CYC1-ADH-IPT5, 1 μL of 200 ppm DMSO solution per 100 μL
[6] = Table 4, TM182-CYC1-ADH-IPT5, 1 μL of 200 ppm DMSO solution per 100 μL

| SMILES | absorbance (OD600) of the culture solution [1] | absorbance (OD600) of the culture solution [2, 5] | absorbance (OD600) of the culture solution [2, 6] | absorbance (OD600) of the culture solution [3] | absorbance (OD600) of the culture solution [4] |
| --- | --- | --- | --- | --- | --- |
| CC1=CC(=O)CC(C)(C)[C@@]1(O)/C=C/C(C)=C\C(=O)O [Compound A, Abscisic acid] | 0.045 | 0.043 | 0.035 | 0.131 | 0.194 |
| c1ccc(CNc2ncnc3nc[nH]c23)cc1 [Compound B, 6-Benzyl aminopurine] | 0.058 | 0.043 | 0.035 | 0.293 | 0.339 |
